Like-named read-outs stand apart in the source and are kept apart here.

The Ki is a dissociation constant, usually derived from enzyme kinetics or from competition with a known ligand. High values mean a looser hold on the target, low ones a stronger hold on the target.

What all share (type): biochemical
One experiment concerns the target p110delta (Homo sapiens, UniProt O00329). The experiment is described as follows: PI3K kinase assay (ADP-Glo), p110delta. Conditions: final ATP 25 μM. The protocol: (§1) Summary of PI3K Kinase Assay
(§2) 1. Prepare 1.25× enzyme/substrate: mix equal volume of 2.5× enzyme (in 2.5× reaction buffer) and 2.5× substrate (final 0.05 mg/ml) (in 2.5× lipid dilution buffer);
(§3) 2. Add 4 μl of 1.25× enzyme/substrate mixture to 384-well low volume white plate;
(§4) 3. Add 0.1 μl of increasing concentrations of compound diluted in DMSO;
(§5) 4. Incubate at r.t. for 30 min;
(§6) 5. Dispense 1 μl of 250 μM ATP diluted in ddH2O. The final ATP was 25 μM;
(§7) 6. Incubate at r.t. for 1 h;
(§8) 7. Add 5 μl of ADP-Glo with 10 mM MgCl2;
(§9) 8. Incubate at r.t. for 40 min;
(§10) 9. Add 10 μl of kinase detection buffer;
(§11) 10. Incubated at r.t. for 30 min; and
(§12) 11. Read luminescence signal using Envision multilabel plate reader.
(§13) The effect of compound on kinase activity is expressed as % of control and calculated as the following equation: % of Control=(Lum compound−Lum blank)/(Lum vehicle control−Lum blank)×100 • * blank is the substrate only without enzyme, which is the background signal control.
(§14) The experiment was repeated twice on different days at triplicates per sample.
On the technique in general: In ADP-Glo the light output rises with the ADP produced.

Another experiment has as its target p110beta (Homo sapiens, UniProt P42338). The experiment is described as follows: PI3K kinase assay (ADP-Glo), p110beta. Conditions: final ATP 25 μM. The protocol:
as §1, §2, §3, §4, §5, §6, §7, §8, §9, §10, §11, §12, §13, §14

A further experiment has as its target p120gamma (Homo sapiens, UniProt P48736). The experiment is described as follows: PI3K kinase assay (ADP-Glo), p120gamma. As to conditions: final ATP 25 μM. The protocol: as §1, §2, §3, §4, §5, §6, §7, §8, §9, §10, §11, §12, §13, §14
The target of a further experiment is p110alpha (Homo sapiens, UniProt P42336). The experiment is described as follows: PI3K kinase assay (ADP-Glo), p110alpha. Conditions: final ATP 25 μM. The protocol: as §1
Enzyme optimization: After optimization, the following concentrations of Enzyme are used to compound testing: P110alpha 1 μg/ml,
as §2, §3, §4, §5, §6, §7, §8, §9, §10, §11, §12, §13, §14

The target in the next experiment is T1, PI3Kα (Homo sapiens, UniProt P42336).
T1 construct: purchased Promega V1721
The experiment is described as follows: Ki for PI3Kα (Promega ADP-Glo Lipid Kinase System). An excerpt: The Promega V1721 ADP-Glo Lipid Kinase System was used as per the Promega technical manual. The analysis was done in triplicate on three 96-well plates. The plates were read and the data were processed with GraphPad Prism 7.0.

The mark [1] stands for this setting: Exp. 1, read-out: IC50 p110delta Exp. 1.
Where [2] appears, read: Exp. 2, read-out: IC50 p110delta Exp. 2.
[3] abbreviates: Exp. 1, read-out: IC50 p110beta Exp. 1.
The mark [4] stands for this setting: Exp. 2, read-out: IC50 p110beta Exp. 2.
The mark [5] stands for this setting: Exp. 1, read-out: IC50 p120gamma Exp. 1.
Setting [6] is: Exp. 2, read-out: IC50 p120gamma Exp. 2.
The mark [7] stands for this setting: Exp. 1, read-out: IC50 p110alpha Exp. 1.
Where [8] appears, read: Exp. 2, read-out: IC50 p110alpha Exp. 2.

T1 sequence (P42336 whole entry): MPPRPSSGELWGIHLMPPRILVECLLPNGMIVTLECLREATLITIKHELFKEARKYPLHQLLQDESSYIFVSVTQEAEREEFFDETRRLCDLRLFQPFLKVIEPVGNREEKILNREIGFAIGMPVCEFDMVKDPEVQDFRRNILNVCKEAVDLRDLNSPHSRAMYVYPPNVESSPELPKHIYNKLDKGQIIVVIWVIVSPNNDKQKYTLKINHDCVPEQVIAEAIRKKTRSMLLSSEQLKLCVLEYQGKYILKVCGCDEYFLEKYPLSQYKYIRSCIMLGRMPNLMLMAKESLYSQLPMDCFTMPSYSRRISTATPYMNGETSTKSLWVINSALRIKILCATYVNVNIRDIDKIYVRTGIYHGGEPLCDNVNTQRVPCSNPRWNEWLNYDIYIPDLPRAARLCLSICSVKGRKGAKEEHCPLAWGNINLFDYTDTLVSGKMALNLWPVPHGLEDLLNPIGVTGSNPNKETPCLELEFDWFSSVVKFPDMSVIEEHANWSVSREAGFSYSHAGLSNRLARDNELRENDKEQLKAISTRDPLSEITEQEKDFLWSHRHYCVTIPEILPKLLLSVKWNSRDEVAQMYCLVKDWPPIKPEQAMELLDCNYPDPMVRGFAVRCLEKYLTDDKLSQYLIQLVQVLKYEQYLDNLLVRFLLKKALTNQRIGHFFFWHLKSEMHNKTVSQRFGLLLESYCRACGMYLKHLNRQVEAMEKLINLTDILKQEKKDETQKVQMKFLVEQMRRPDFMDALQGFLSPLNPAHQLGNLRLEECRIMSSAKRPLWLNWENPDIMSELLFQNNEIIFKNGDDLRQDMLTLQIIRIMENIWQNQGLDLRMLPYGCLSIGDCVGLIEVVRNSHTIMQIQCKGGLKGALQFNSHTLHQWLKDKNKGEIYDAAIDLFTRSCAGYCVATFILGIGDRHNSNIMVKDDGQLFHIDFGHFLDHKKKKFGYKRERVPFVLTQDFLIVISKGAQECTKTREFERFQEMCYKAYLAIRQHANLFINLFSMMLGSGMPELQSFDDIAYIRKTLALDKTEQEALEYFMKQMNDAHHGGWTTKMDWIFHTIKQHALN
T1 sequence (P27986 whole entry partner): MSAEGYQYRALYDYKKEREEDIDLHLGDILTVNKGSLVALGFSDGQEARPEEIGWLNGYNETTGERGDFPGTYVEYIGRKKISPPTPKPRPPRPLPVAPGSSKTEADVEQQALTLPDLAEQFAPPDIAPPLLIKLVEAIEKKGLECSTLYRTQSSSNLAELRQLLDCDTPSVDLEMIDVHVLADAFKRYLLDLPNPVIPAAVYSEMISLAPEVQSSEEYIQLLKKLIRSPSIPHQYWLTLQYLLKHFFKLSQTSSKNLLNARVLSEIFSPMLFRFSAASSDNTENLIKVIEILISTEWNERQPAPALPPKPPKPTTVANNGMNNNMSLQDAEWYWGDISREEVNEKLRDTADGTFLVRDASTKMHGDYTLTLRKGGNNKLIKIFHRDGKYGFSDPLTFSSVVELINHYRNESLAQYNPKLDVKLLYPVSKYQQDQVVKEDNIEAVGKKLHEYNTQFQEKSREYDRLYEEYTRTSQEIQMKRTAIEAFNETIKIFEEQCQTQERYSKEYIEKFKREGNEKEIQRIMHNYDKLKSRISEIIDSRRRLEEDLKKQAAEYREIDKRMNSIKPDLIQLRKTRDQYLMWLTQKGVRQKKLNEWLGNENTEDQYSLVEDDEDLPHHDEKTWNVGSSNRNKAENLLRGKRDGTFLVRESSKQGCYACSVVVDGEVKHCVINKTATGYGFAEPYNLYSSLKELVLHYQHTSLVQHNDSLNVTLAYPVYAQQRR
Chain of p110alpha (P42336 whole entry): as the sequence (P42336 whole entry) above
Chain of p110alpha (P27986 whole entry partner): as the sequence (P27986 whole entry partner) above
Chain of p120gamma (P48736 whole entry): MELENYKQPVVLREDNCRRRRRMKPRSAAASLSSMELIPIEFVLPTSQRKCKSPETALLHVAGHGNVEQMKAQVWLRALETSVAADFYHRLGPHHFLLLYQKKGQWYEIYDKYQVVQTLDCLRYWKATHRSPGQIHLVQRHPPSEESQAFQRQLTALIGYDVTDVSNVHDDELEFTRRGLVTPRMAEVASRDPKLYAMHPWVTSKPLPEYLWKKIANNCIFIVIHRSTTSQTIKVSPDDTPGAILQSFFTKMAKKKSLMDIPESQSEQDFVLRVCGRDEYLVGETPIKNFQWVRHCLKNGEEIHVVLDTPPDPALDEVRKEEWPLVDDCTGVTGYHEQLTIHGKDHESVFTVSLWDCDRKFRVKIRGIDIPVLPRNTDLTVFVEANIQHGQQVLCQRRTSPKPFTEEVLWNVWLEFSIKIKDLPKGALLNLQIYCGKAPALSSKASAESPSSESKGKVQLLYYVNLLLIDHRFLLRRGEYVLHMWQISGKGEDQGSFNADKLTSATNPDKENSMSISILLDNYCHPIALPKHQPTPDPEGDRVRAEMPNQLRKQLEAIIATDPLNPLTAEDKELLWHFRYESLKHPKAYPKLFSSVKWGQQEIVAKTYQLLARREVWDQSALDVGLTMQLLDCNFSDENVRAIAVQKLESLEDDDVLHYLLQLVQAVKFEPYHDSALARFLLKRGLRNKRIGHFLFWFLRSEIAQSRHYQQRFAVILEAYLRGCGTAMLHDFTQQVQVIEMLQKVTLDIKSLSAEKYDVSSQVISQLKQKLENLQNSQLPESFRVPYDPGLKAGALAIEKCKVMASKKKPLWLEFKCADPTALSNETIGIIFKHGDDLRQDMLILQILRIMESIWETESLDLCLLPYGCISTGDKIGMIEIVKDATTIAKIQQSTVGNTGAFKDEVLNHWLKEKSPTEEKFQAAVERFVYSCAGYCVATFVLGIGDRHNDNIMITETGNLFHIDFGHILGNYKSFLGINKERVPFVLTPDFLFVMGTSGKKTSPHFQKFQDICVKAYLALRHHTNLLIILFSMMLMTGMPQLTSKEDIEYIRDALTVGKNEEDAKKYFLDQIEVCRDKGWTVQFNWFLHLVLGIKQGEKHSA
Chain of p110delta (O00329 whole entry): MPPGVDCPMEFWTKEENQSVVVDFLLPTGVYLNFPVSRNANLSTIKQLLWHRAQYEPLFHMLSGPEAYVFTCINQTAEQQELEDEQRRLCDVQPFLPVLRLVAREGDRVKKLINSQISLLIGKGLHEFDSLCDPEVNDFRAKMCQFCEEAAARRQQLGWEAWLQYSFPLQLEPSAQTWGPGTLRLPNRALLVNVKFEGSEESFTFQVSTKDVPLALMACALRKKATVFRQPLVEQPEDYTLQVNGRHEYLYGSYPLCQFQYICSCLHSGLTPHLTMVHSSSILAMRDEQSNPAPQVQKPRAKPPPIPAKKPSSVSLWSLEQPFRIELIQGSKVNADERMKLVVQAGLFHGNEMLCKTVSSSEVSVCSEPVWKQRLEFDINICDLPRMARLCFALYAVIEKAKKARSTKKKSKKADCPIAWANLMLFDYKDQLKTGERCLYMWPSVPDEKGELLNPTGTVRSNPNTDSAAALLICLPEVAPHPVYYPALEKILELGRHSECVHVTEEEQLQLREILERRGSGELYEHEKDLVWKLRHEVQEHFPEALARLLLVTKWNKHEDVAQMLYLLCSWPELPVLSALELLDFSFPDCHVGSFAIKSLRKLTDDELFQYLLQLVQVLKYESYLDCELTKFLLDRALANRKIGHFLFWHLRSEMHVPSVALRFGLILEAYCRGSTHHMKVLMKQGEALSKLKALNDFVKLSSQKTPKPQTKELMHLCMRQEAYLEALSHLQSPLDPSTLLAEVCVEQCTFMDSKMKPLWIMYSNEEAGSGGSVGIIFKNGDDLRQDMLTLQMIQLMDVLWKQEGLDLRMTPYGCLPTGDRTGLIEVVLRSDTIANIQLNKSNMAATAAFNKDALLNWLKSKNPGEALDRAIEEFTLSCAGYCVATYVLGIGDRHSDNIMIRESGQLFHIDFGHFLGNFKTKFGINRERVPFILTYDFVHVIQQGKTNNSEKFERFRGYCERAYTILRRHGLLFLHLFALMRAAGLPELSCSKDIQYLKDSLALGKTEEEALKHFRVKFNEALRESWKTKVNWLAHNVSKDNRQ
Chain of p110delta (P27986 whole entry partner): as the sequence (P27986 whole entry partner) above

For `COc1ncc(-c2cnc3ccc(-c4cncc(NS(=O)(=O)c5ccccc5)c4)cn23)cn1` [TK2-67p3-36 (6b), N-(5-(3-(2-methoxypyrimidin-5-yl)imidazo[1,2-a]pyridin-6-yl)pyridin-3-yl)benzenesulfonamide], the IC50 stood at 33.5 nM on p110delta (setting [1]); 27.7 nM on p110delta (setting [2]); 167 nM on p110beta (setting [3]); 187 nM on p110beta (setting [4]); 14.9 nM on p120gamma (setting [5]); 27.7 nM on p120gamma (setting [6]). Moreover, the IC50 came out at 11.7 nM on p110alpha (setting [7]) and 12.7 nM on p110alpha (setting [8]).
With `O=S(=O)(Nc1cncc(-c2ccc3ncc(-c4ncccn4)n3c2)c1)c1ccccc1` [TK2-94p3-47 (6d), N-(5-(3-(pyrimidin-2-yl)imidazo[1,2-a]pyridin-6-yl)pyridin-3-yl)benzenesulfonamide], the IC50 on p110delta (setting [1]) came to 10.8 nM; on p110delta (setting [2]), 8.5 nM; at p110beta (setting [3]), 27.6 nM; on p110beta (setting [4]) it was 44.9 nM; at p120gamma (setting [5]) it was 7.5 nM; at p120gamma (setting [6]), 8.5 nM. Moreover, the IC50 was found to be 8.9 nM at p110alpha (setting [7]) and 11.5 nM at p110alpha (setting [8]).
As to `O=S(=O)(Nc1cncc(-c2ccc3ncc(-c4ncccn4)n3c2)c1)c1ccccc1` [drawing 19], the Ki at PI3Kα is 100 nM.
Same read-out and setting: in the case of `COc1ncc(-c2cnc3ccc(-c4cncc(NS(=O)(=O)c5ccccc5)c4)cn23)cn1` [drawing 17] it was 70 nM.
As to `CN(C)c1ncc(-c2cnc3ccc(-c4cncc(NS(=O)(=O)c5ccccc5)c4)cn23)cn1` [TK2-71pZD2-86 (6a), N-(5-(3-(2-(dimethylamino)pyrimidin-5-yl)imidazo[1,2-a]pyridin-6-yl)pyridin-3-yl)benzenesulfonamide], the IC50 was found to be 33.5 nM on p110delta (setting [1]); 34.2 nM on p110delta (setting [2]); 190 nM on p110beta (setting [3]); 184 nM on p110beta (setting [4]); 18.6 nM on p120gamma (setting [5]); 34.2 nM at p120gamma (setting [6]). Also, the IC50 at p110alpha (setting [7]) is 20.9 nM; on p110alpha (setting [8]), 33.7 nM.
Take `O=S(=O)(Nc1cncc(-c2ccc3ncc(-c4cnc5ccnn5c4)n3c2)c1)c1ccccc1` [TK2-130p3-37 (6c), N-(5-(3-(pyrazolo[1,5-a]pyrimidin-6-yl)imidazo[1,2-a]pyridin-6-yl)pyridin-3-yl)benzenesulfonamide]: the IC50 on p110delta (setting [1]) stood at 34.1 nM; at p110delta (setting [2]), 31 nM; on p110beta (setting [3]), 419 nM; at p110beta (setting [4]) it was 479 nM; on p120gamma (setting [5]), 50.2 nM; on p120gamma (setting [6]) it was 31 nM. For the same compound, the IC50 on p110alpha (setting [7]) is 51 nM; on p110alpha (setting [8]), 61.3 nM.
In the case of `CN(C)c1ncc(-c2cnc3ccc(-c4cncc(NS(=O)(=O)c5ccccc5)c4)cn23)cn1` [drawing 16], affinity at PI3Kα was put at a Ki of 244 nM.
The compound `CCc1nc(-c2cnc3ccc(-c4cncc(NS(=O)(=O)c5ccccc5)c4)cn23)no1` gave a Ki on PI3Kα of 43 nM.
As for `Nc1ccc(-c2cccc3c(=O)cc(N4CCOCC4)oc23)cc1` [PI 828, reference compound], the IC50 on p110delta (setting [1]) was found to be 308 nM; at p110delta (setting [2]) it was 203 nM; at p110beta (setting [3]), 244 nM; on p110beta (setting [4]) it was 242 nM; on p120gamma (setting [5]), 1920 nM; on p120gamma (setting [6]), 2140 nM. For the same compound, the IC50 on p110alpha (setting [7]) was determined as 351 nM; on p110alpha (setting [8]) it was 349 nM.
For the compound `O=S(=O)(Nc1cncc(-c2ccc3ncc(-c4cnc5ccnn5c4)n3c2)c1)c1ccccc1` [drawing 18], the Ki at PI3Kα was 329 nM.

The record behind these values is US10947225B2, “Phosphotidylinositol 3-kinase inhibitors” (Emory University, priority 2016, dated 2021).
